Results: paper PMC9696374, “Antiandrogenic Effects of a Polyphenol in Carex kobomugi through Inhibition of Androgen Synthetic Pathway and Downregulation of Androgen Receptor in Prostate Cancer Cell Lines” (International Journal of Molecular Sciences, 2022)

Biological target: T1, dehydrogenase/reductase SDR family member 11 (DHRS11) (Homo sapiens, UniProt Q6UWP2)
T1 construct: Homogenous recombinant DHRS11
T1 sequence (Q6UWP2 31-260): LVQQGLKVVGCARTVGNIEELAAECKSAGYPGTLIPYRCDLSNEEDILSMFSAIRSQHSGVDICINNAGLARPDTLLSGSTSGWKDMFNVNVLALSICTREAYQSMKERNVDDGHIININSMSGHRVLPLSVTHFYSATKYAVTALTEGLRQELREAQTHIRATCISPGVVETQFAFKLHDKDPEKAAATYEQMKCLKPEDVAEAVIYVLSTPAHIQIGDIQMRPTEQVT
Assay: reductase activity of recombinant DHRS11, NADPH absorbance at […] nm, isatin substrate
Format: biochemical

IC50: 350 ± 30 nM
SMILES: Cc1c(O)cc(O)c2c(=O)cc(/C=C/c3ccc(O)cc3)oc12 [VI, 5,7-dihydroxy-8-methyl-2-[2-(4-hydroxyphenyl)ethenyl]-4H-1-benzopyran-4-one]
